Laboratory results reported in patent US10513522B2, “Azetidinyl phenyl, pyridyl or pyrazinyl carboxamide derivatives as JAK inhibitors” (Incyte Corporation, priority 2011, dated 2019).

Test system: human JAK1 (a.a. 837-1142)
Test: In vitro JAK kinase assay (HTRF, phosphorylation of biotinylated peptide), JAK1
Assay type: biochemical
Settings: ratio of IC50 at 1 mM ATP
Description: The catalytic activity of JAK1, JAK2 or JAK3 was assayed by measuring the phosphorylation of a biotinylated peptide. The phosphorylated peptide was detected by homogenous time resolved fluorescence (HTRF). […] Reactions were carried out at room temperature for 1 hour and then stopped with 20 μL 45 mM EDTA, 300 nM SA-APC, 6 nM Eu-Py20 in assay buffer (Perkin Elmer, Boston, Mass.). Binding to the Europium labeled antibody took place for 40 minutes and HTRF signal was measured on a Fusion plate reader (Perkin Elmer, Boston, Mass.).

JAK2/JAK1, A (A means greater than or equal to 10):
C[C@H](NC(=O)c1ccc(N2CC(CC#N)(n3cc(-c4ccnc5[nH]ccc45)cn3)C2)cn1)C1CC1 [Example 2, 5-{3-(Cyanomethyl)-3-[4-(1H-pyrrolo[2,3-b]pyridin-4-yl)-1H-pyrazol-1-yl]azetidin-1-yl}-N-[(1S)-1-cyclopropylethyl]pyridine-2-carboxamide]
C[C@@H](NC(=O)c1ccc(N2CC(CC#N)(n3cc(-c4ncnc5[nH]ccc45)cn3)C2)c(F)c1)C1CC1 [Example 4, 4-{3-(Cyanomethyl)-3-[4-(7H-pyrrolo[2,3-d]pyrimidin-4-yl)-1H-pyrazol-1-yl]azetidin-1-yl}-N-[(1R)-1-cyclopropylethyl]-3-fluorobenzamide]
N#CCC1(n2cc(-c3ccnc4[nH]ccc34)cn2)CN(c2cnc(C(=O)N[C@@H](C3CC3)C(F)(F)F)cn2)C1 [Example 42, 5-{3-(Cyanomethyl)-3-[4-(1H-pyrrolo[2,3-b]pyridin-4-yl)-1H-pyrazol-1-yl]azetidin-1-yl}-N-[(1S)-1-cyclopropyl-2,2,2-trifluoroethyl]pyrazine-2-carboxamide]
C[C@H](NC(=O)c1ccc(N2CC(CC#N)(n3cc(-c4ncnc5[nH]ccc45)cn3)C2)c(F)c1)C1CC1 [Example 5, 4-{3-(Cyanomethyl)-3-[4-(7H-pyrrolo[2,3-d]pyrimidin-4-yl)-1H-pyrazol-1-yl]azetidin-1-yl}-N-[(1S)-1-cyclopropylethyl]-3-fluorobenzamide]
C[C@H](NC(=O)c1ccc(N2CC(CC#N)(n3cc(-c4ncnc5[nH]ccc45)cn3)C2)cc1F)C(F)(F)F [Example 22, 4-{3-(Cyanomethyl)-3-[4-(7H-pyrrolo[2,3-d]pyrimidin-4-yl)-1H-pyrazol-1-yl]azetidin-1-yl}-2-fluoro-N-[(1S)-2,2,2-trifluoro-1-methylethyl]benzamide]
CC(C)NC(=O)c1ccc(N2CC(CC#N)(n3cc(-c4ccnc5[nH]ccc45)cn3)C2)c(F)c1 [Example 27, 4-{3-(Cyanomethyl)-3-[4-(1H-pyrrolo[2,3-b]pyridin-4-yl)-1H-pyrazol-1-yl]azetidin-1-yl}-3-fluoro-N-isopropylbenzamide]
CC(C)NC(=O)c1ccc(N2CC(CC#N)(n3cc(-c4ncnc5[nH]ccc45)cn3)C2)cc1 [Example 13, 4-{3-(Cyanomethyl)-3-[4-(7H-pyrrolo[2,3-d]pyrimidin-4-yl)-1H-pyrazol-1-yl]azetidin-1-yl}-N-isopropylbenzamide]
C[C@H](NC(=O)c1cc(F)c(N2CC(CC#N)(n3cc(-c4ncnc5[nH]ccc45)cn3)C2)cc1F)C(F)(F)F [Example 28, 4-{3-(Cyanomethyl)-3-[4-(7H-pyrrolo[2,3-d]pyrimidin-4-yl)-1H-pyrazol-1-yl]azetidin-1-yl}-2,5-difluoro-N-[(1S)-2,2,2-trifluoro-1-methylethyl]benzamide]
